Holding throughout (type): in vivo
In data set [1] the test system is dogs suffering from osteoarthritis. Put plainly: Example 1: pain relief and side effects in canine osteoarthritis. The settings on record: dogs with osteoarthritis, 4 weeks of administration, group average. From the text: (§1) This example examines the ability of various compositions to minimize pain and examines the level of adverse side effects of each composition.
(§2) At the outset of the study, participants receive a full physical examination, including weight measurement, thigh circumference, and CBC/blood chemistries. Because osteoarthritis is not only a disease of pain, but one characterized by behavioral, appetite, anxiety/aggression, family socialization, and sleep aberrations, the pet's owners are familiarized with the pain scale (canine orthopedic index) and additional behavioral assessment log.
The patient group is twenty-four dogs suffering from osteoarthritis, broken into eight groups of three dogs. The first group receives a control composition with no active agent; the second group receives a composition comprising HA as the sole active agent; the third group receives a composition comprising HMW HA as the sole active agent; the fourth group receives a composition comprising CBD as the sole active agent; the fifth group receives a composition comprising HA and CBD as the active agents; the sixth group receives a composition comprising HMW HA and CBD as the active agents; the seventh group receives a composition comprising Rimadyl as the active agent; and the eighth group receives a composition comprising Meloxicam as the active agent.
(§3) Each composition is administered for a period of four (4) weeks. The owner completes the electronic log questionnaire each week. At the end of the 4-week study, participants have another full physical examination, including weight measurement, thigh circumference, and CBC/blood chemistries, with an exit interview of the owners to gain final impressions.
Each group is evaluated for pain scores and the scores averaged. The following scores are observed and the results depicted in FIG. 1: […]

Data set [2] shares this test system. Put plainly: Example 9: pain relief and side effects in canine osteoarthritis (CBD Complex). To be noted: dogs with osteoarthritis, 4 weeks of administration, group average.
Description: as §1, §2
The patient group is twenty-four dogs suffering from osteoarthritis, broken into eight groups of three dogs. The first group receives a control composition with no active agent; the second group receives a composition comprising HA as the sole active agent; the third group receives a composition comprising HMW HA as the sole active agent; the fourth group receives a composition comprising CBD as the sole active agent; the fifth group receives a composition comprising HA and CBD as the active agents; the sixth group receives a composition comprising HMW HA and CBD Complex as the active agents; the seventh group receives a composition comprising Rimadyl as the active agent; and the eighth group receives a composition comprising Meloxicam as the active agent.
as §3
Each group is evaluated for pain scores and the scores averaged. The following scores are observed and the results depicted in FIG. 9: […]

For data set [3], the system named is dogs suffering from cognitive dysfunction syndrome. Put plainly: Example 10: cognitive decline, Cognitive Dysfunction Screening Checklist (CBD Complex). To be noted: for Average Initial Score: day 0 (before treatment); for Average Final Score: day 60, BID. The source says:
This example examines the ability of embodiments of the invention versus Anipryl® to treat cognitive decline.
The patient group is twenty dogs suffering from cognitive dysfunction syndrome, as determined by the Cognitive Dysfunction Screening Checklist. See G. Landsberg et al., 2003 HANDBOOK OF BEHAVIOR PROBLEMS OF THE DOG AND CAT (Elsevier Science Limited) (2003). The twenty dogs are broken into five groups of four dogs. The first group receives Anipryl® as the sole active agent; the second group receives a composition comprising HMW HA as the sole active agent; the third group receives a composition comprising CBD as the sole active agent; the fourth group receives a composition comprising HMW HA and CBD Complex as the active agents; and the fifth group receives a composition comprising HMW HA, CBD Complex, nicotinamide adenine dinucleotide (“NAD”), and phosphatidylserine as the active agents.
Each composition is administered for a period of sixty (60) days, twice per day (“BID”). The owner completes the Checklist on days 0 (“Initial Score”), 15, 30, 45, and 60 (“Final Score”) of treatment.
Each group is evaluated and Checklist scores averaged. The following scores are observed and the results depicted in FIG. 10: […]

In data set [4] the test system is cats suffering from joint inflammation. The data set can be described thus: Example 12: joint inflammation, thermal imaging (feline, CBD Complex). The settings on record: over the inflamed joint, 60 days BID. The source says:
This example examines the ability of embodiments of the invention versus Cosequin® to treat joint inflammation.
The first patient group is twenty dogs suffering from joint inflammation. The second patient group is twenty cats suffering from joint inflammation. The third patient group is twenty horses suffering from joint inflammation. Each patient group is broken into five groups of four animals. The first groups receive Cosequin® as the sole active agent; the second groups receive a composition comprising HMW HA as the sole active agent; the third groups receive a composition comprising CBD as the sole active agent; the fourth groups receive a composition comprising HMW HA and CBD Complex as the active agents; and the fifth groups receive a composition comprising HMW HA, CBD Complex, Boswellia, and superoxide dismutase (“SOD”) as the active agents.
Each composition is administered for a period of sixty (60) days, BID. Efficacy is determined by a decrease in body temperature over the inflamed joint, as measured by thermal imaging (e.g., via Digatherm device). Thermal imaging is performed on days 0 (“Initial Score”), 15, 30, 45, and 60 (“Final Score”) of treatment.
The following feline scores are observed and the results depicted in FIG. 12b: […]

For data set [5], the system named is dogs with a history of severe, chronic skin issues, atopy, pruritis, yeast overgrowth, and/or infection. The data set can be described thus: Example 16: skin conditions (itch score) and side effects in dogs (CBD Complex). To be noted: for Average Side Effect Score: dogs with skin conditions, 60 days BID; for Initial Itch Score / Final Itch Score: itch scale 0 (no itching) to 10 (extremely severe); for Initial Itch Score: day 0; for Final Itch Score: day 60, BID. The source says:
This example examines the ability of embodiments of the invention versus prednisone to treat skin conditions.
The patient group is twenty-four dogs with a history of severe, chronic skin issues, atopy, pruritis, yeast overgrowth, and/or infection, as diagnosed by their referring veterinarian. The patient group is broken into six groups of four animals. The first group receives prednisone as the sole active agent; the second group receives a composition comprising prednisone and HMW HA as the active agents; the third group receives a composition comprising HMW HA as the sole active agent; the fourth group receives a composition comprising CBD as the sole active agent; the fifth group receives a composition comprising HMW HA and CBD Complex as the active agents; and the sixth group receives a composition comprising HMW HA, CBD Complex, quercetin, and nettles as the active agents.
Each composition is administered for a period of sixty (60) days, BID. Each dog is evaluated on days 0 (“Initial Score”), 20, 40, and 60 (“Final Score”) of treatment. The results are averaged and characterized on a scale of 0 (no itching—normal dog), 2 (very mild itching—only occasional episodes), 4 (mild itching), 6 (moderate itching—regular episodes), 8 (severe itching—prolonged episodes), to 10 (extremely severe itching—almost continuous).

These results are taken from US20220054532A1, “VETERINARY COMPOSITIONS AND METHODS OF USE THEREFOR” (priority 2019, published 2022).

Turning to `C=C(C)[C@@H]1CCC(C)=C[C@H]1c1c(O)cc(CCCCC)cc1O` [CBD Alone, 2-[(1R,6R)-3-methyl-6-prop-1-en-2-ylcyclohex-2-en-1-yl]-5-pentylbenzene-1,3-diol], in data set [1], the “Average Pain Score” value stood at 19 and the “Average Side Effect Score” value stood at 0.5. Moreover, in data set [1] (listed as CBD alone), the “Average Pain Score” value was “not especially effective in reducing pain” and the “Average Side Effect Score” value was “even lower degree of adverse side effects”. Also, in data set [2], the “Average Pain Score” value worked out at 19 and the “Average Side Effect Score” value was 0.5. In data set [2] (listed as CBD alone), the “Average Pain Score” value is “not especially effective in reducing pain” and the “Average Side Effect Score” value was “even lower degree of adverse side effects”. Also, in data set [3], the “Average Initial Score” value is listed as 3 and the “Average Final Score” value amounted to 1.5. Further, the “Reduction in Temperature (° F.)” value in data set [4] is given as 2.0 ° F. For the same compound, in data set [5], the “Average Side Effect Score” value is “.5”, the “Initial Itch Score” value is recorded as 9 and the “Final Itch Score” value was 5.
As to hyaluronic acid [HMW HA Alone], the “Average Pain Score” value was 16 in data set [1], “only slightly reduce pain” in data set [1] (listed as HMW HA alone), 16 in data set [2] and “only slightly reduce pain” in data set [2] (listed as HMW HA alone). Also, the “Average Side Effect Score” value in data set [1] was 4; in data set [1] (listed as HMW HA alone), “low degree of adverse side effects”; in data set [2], 4; in data set [2] (listed as HMW HA alone), “low degree of adverse side effects”; in data set [5], 4. Further, the “Average Initial Score” value in data set [3] is 3. Besides, the “Average Final Score” value in data set [3] amounted to 2. In addition, the “Reduction in Temperature (° F.)” value in data set [4] was found to be 2.3 ° F. In data set [5], the “Initial Itch Score” value stood at 9. Moreover, the “Final Itch Score” value in data set [5] was 7.
